Results published in patent US8623924B2, “Compositions and methods for modulating metabolic pathways” (Nusirt Sciences, Inc., priority 2011, dated 2014).
Entries after “also recorded” stand apart in the source; their conditions may differ. Marks after values point to notes of the source that are not given here.

Legend:
[1] = system: C-reactive protein; experiment: Inflammatory biomarker C-reactive protein in diet-induced obese mice; format: in vivo; details: 6 weeks on diet, low resveratrol 12.5 mg/kg diet, low HMB 2 g CaHMB/kg diet, high HMB 10 g CaHMB/kg diet, leucine 2.42% of diet
[2] = system: MCP-1; experiment: Inflammatory biomarker MCP-1 in diet-induced obese mice; format: in vivo; details: 6 weeks on diet, low resveratrol 12.5 mg/kg diet, low HMB 2 g CaHMB/kg diet, high HMB 10 g CaHMB/kg diet, leucine 2.42% of diet
[3] = Oxygen consumption/substrate utilization (metabolic chambers) in diet-induced obese mice; format: in vivo; details: low resveratrol 12.5 mg/kg diet, low HMB 2 g CaHMB/kg diet, high HMB 10 g CaHMB/kg diet, leucine 2.42% of diet
Experimental: (§1) Six week old male c57/BL6 mice were fed a high-fat diet with fat increased to 45% of energy (Research Diets D12451) for 6 weeks to induce obesity.
Oxygen Consumption/Substrate Utilization: at the end of the obesity induction period (day 0 of treatment group) and at 2 weeks and 6 weeks of treatment, oxygen consumption and substrate utilization was measured via metabolic chambers using the Comprehensive Lab Animal Monitoring Systems (CLAMS, Columbus Instruments, Columbus, Ohio) in subgroups of each treatment group. Each animal was placed in individual cages without bedding that allow automated, non-invasive data collection. Each cage is an indirect open circuit calorimeter that provides measurement of oxygen consumption, carbon dioxide production, and concurrent measurement of food intake. All mice were acclimatized to the chambers for 24 hours prior to the experiment and maintained under the regular 12:12 light:dark cycle with free access to water and food. All experiments were started in the morning and data were collected for 24 hours. Each chamber was passed with 0.6 l of air/min and was sampled for 2 min at 32-minute intervals. Exhaust O2 and CO2 content from each chamber was compared with ambient O2 and CO2 content. Food consumption was measured by electronic scales.

[4] = Body weight, weight gain and visceral adiposity in diet-induced obese mice; format: in vivo; details: 6 weeks on diet, low resveratrol 12.5 mg/kg diet, low HMB 2 g CaHMB/kg diet, high HMB 10 g CaHMB/kg diet, leucine 2.42% of diet
Text: as §1
(§2) At the of the treatment period (6 weeks) all animals were humanely euthanized, and blood and tissues collected for further experiments.

[5] = Indices of insulin sensitivity (plasma glucose, insulin, HOMAIR) in diet-induced obese mice; format: in vivo; details: 6 weeks on diet, low resveratrol 12.5 mg/kg diet, low HMB 2 g CaHMB/kg diet, high HMB 10 g CaHMB/kg diet, leucine 2.42% of diet
Text: Insulin sensitivity can be measured using a variety of techniques, including HOMAIR. HOMAIR, which is the homeostasis model assessment of insulin resistance can be used as a screening index of changes in insulin sensitivity. HOMAIR can be calculated via standard formula from fasting plasma insulin and glucose as follows: HOMAIR=[Insulin (uU/mL)×glucose (mM)]/22.5.
as §1, §2

[6] = system: IL-6; experiment: Inflammatory biomarker IL-6 in diet-induced obese mice; format: in vivo; details: 6 weeks on diet, low resveratrol 12.5 mg/kg diet, low HMB 2 g CaHMB/kg diet, high HMB 10 g CaHMB/kg diet, leucine 2.42% of diet
[7] = MicroPET/CT glucose and palmitate uptake in diet-induced obese mice; format: in vivo; details: 6 weeks on diet, low resveratrol 12.5 mg/kg diet, low HMB 2 g CaHMB/kg diet, high HMB 10 g CaHMB/kg diet, leucine 2.42% of diet
Text: as §1
MicroPET/CT (Glucose and Palmitate Uptake): At the end of the treatment period (6 weeks of treatment) subgroups of each treatment diet group (5 animals/group, 35 animals total) were used to measure whole body glucose and palmitate uptake via PET/CT Imaging. To visualize these compounds using microPET imaging, the glucose or palmitate was labeled with fluorine-18 (108 mins half life) or carbon-11 (20 mins half life), respectively. Each mouse was fasted for 4 hours, then anesthetized using 1-3% isoflurane delivered by nose cone or in a mouse-sized induction chamber purpose-built for small animal imaging protocols. While under anesthesia the mice were injected iv with <2 mCi of each tracer, then be left for a period of time (minutes to up ˜1 hour) to allow the uptake of the tracer. During the scan, mice were kept warm using a thermostatically controlled heated bed and were treated with ophthalmic ointment prior to scanning. Following the live scan the mice were returned to their cage and revived. Mice were monitored constantly during this time. Following live data acquisition the mice were sacrificed by isoflurane overdose and organs harvested for further experiments.

[8] = biological target: T1, Sirt1 (Mus musculus, UniProt Q923E4); experiment: Adipose tissue Sirt1 activity in diet-induced obese mice; format: in vivo; details: low dose of resveratrol, HMB, or their combinations with HMB or leucine (FIG. 10)
T1 construct: from tissue; host or cells: adipose tissue of c57/BL6 mice
T1 sequence (Q923E4 1-737): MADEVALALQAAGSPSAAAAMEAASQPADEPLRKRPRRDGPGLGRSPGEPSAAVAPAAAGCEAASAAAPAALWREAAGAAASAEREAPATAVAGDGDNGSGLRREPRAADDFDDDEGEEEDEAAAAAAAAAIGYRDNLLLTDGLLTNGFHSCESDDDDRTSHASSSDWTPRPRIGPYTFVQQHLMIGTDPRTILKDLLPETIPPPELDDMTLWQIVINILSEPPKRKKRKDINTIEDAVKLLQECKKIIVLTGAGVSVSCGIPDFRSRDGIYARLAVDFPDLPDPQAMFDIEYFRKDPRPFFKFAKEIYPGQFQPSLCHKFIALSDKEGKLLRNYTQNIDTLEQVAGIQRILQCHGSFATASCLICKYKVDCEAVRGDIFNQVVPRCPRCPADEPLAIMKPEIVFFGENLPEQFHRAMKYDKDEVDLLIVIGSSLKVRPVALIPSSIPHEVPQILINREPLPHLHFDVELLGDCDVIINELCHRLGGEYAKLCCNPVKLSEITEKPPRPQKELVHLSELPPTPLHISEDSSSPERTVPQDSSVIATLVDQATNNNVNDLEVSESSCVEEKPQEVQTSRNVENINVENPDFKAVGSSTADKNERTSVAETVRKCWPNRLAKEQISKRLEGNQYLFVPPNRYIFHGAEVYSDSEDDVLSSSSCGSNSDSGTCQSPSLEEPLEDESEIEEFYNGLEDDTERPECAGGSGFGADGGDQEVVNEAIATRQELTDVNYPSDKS

[9] = system: Adiponectin; experiment: Adiponectin in diet-induced obese mice; format: in vivo; details: 6 weeks on diet, low resveratrol 12.5 mg/kg diet, low HMB 2 g CaHMB/kg diet, high HMB 10 g CaHMB/kg diet, leucine 2.42% of diet
[10] = biological target: T2, Sirt3 (Mus musculus, UniProt Q8R104); experiment: Sirt3 activity in mitochondrial protein of treated 3T3-L1 adipocytes; format: cell-based; details: 4 hours, leucine 0.5 mM, HMB 5 uM, resveratrol 200 nM
T2 construct: endogenous in cells; host or cells: 3T3-L1 adipocytes (mitochondrial protein)
T2 sequence (Q8R104 1-334): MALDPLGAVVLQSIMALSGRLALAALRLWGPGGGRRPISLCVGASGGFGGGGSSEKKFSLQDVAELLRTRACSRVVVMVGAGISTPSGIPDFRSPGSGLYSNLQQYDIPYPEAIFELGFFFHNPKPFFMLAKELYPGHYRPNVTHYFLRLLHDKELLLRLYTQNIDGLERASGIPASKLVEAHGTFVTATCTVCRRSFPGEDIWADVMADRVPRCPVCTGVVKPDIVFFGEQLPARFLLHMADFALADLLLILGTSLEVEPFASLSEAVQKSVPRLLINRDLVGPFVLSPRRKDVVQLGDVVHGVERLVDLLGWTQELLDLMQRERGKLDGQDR

[11] = system: PGC-1α, NRF-1 and UCP3 genes; experiment: Expression of mitochondrial regulatory and component genes; format: cell-based

CC(C)(O)CC(=O)O [HMB]
C-reactive protein [1]: 98.6 ± 5.1 ng/mL | MCP-1 (pg/mL) [2]: 116.8 ± 9.3^a pg/mL | Heat Production [3]: 0.526 ± 0.011^a | Respiratory Exchange Ratio (24 hr RER) [3]: 0.844 ± 0.012^a | Visceral Adipose Volume (mm^3) [4]: 6184 ± 460^a mm^3 | Weight (g) [4]: 40.3 ± 2.1^a g | Weight gain [4]: 22.5 ± 1.2 g | HOMAIR [5]: 1.93 ± 0.32^a | Glucose (mM) ([5]; plasma): 4.28 ± 0.49^a mM | Insulin (μU/mL) ([5]; plasma): 8.3 ± 1.1^a μU/mL | IL-6 (pg/mL) [6]: 19.9 ± 3.1^a pg/mL | Fat oxidation (PET palmitate uptake; Muscle SUV) [7]: 1.90 ± 0.29^a SUV | Muscle Glucose Uptake (18F-deoxyglucose SUV) [7]: 2.99 ± 0.42^a SUV | adipose tissue Sirt1 activity [8]: Neither resveratrol nor HMB exerted significant independent effects | Adiponectin (ng/mL) [9]: 11.1 ± 1.6^a ng/mL | increase in Sirt3 activity [10]: no significant independent effect; also recorded: no independent effects | expression of mitochondrial regulatory (PGC-1α and NRF-1) and component (UCP3) genes [11]: stimulated expression
